Measurements taken from the supplement of paper PMC9938120.

Tests used:
Assay in all cases: drug sensitivity score (DSS3, normalised partial AUC of % inhibition dose-response) (DSS (score)); higher = more sensitive (stronger inhibition of viability); extreme values may be limits of the assay
FMOC02_2 = patient-derived low-grade serous ovarian cancer cells; conditions: 72 h; library: FO5A; assay format: 2D, 384-well, CellTiter-Glo
Procedure, shortened: (§1)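 Patient-derived ovarian cancer cells (early passage, under 10) were dispensed onto 384-well flat clear-bottom plates pre-plated with compounds at five concentrations covering a 10,000-fold range. Plates were incubated 72 h at 37 °C, 5% CO2, and viability was read with CellTiter-Glo. Data were processed in Breeze. The drug sensitivity score (DSS3) is a partial area under the percent-inhibition dose-response curve, divided by the log of the upper asymptote; higher means more sensitive.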

FMOC14 = patient-derived high-grade serous ovarian cancer cells; conditions: 72 h; library: FO5A; assay format: 2D, 384-well, CellTiter-Glo
Procedure, shortened: as §1

FMOC24 = patient-derived high-grade serous ovarian cancer cells; conditions: 72 h; library: FO5A; assay format: 2D, 384-well, CellTiter-Glo
Procedure, shortened: as §1

FMOC06 = patient-derived mucinous ovarian cancer cells; conditions: 72 h; library: FO5A; assay format: 2D, 384-well, CellTiter-Glo
Procedure, shortened: as §1

FMOC22 = patient-derived mucinous ovarian cancer cells; conditions: 72 h; library: FO5A; assay format: 2D, 384-well, CellTiter-Glo
Procedure, shortened: as §1

FMOC09 = patient-derived high-grade serous ovarian cancer cells; conditions: 72 h; library: FO5A; assay format: 2D, 384-well, CellTiter-Glo
Procedure, shortened: as §1

FMOC25_1 = patient-derived low-grade serous ovarian cancer cells; conditions: 72 h; library: FO4B; assay format: 2D, 384-well, CellTiter-Glo
Procedure, shortened: as §1

FMOC02_3 = patient-derived low-grade serous ovarian cancer cells; conditions: 72 h; library: FO5A; assay format: 2D, 384-well, CellTiter-Glo
Procedure, shortened: as §1

FMOC25_2 = patient-derived low-grade serous ovarian cancer cells; conditions: 72 h; library: FO5A; assay format: 2D, 384-well, CellTiter-Glo
Procedure, shortened: as §1

FMOC03 = patient-derived mucinous ovarian cancer cells; conditions: 72 h; library: FO5A; assay format: 2D, 384-well, CellTiter-Glo
Procedure, shortened: as §1

| SMILES | drug sensitivity score (FMOC02_2) | drug sensitivity score (FMOC14) | drug sensitivity score (FMOC24) | drug sensitivity score (FMOC06) | drug sensitivity score (FMOC22) | drug sensitivity score (FMOC09) | drug sensitivity score (FMOC25_1) | drug sensitivity score (FMOC02_3) | drug sensitivity score (FMOC25_2) | drug sensitivity score (FMOC03) |
| --- | --- | --- | --- | --- | --- | --- | --- | --- | --- | --- |
| COc1cc2ncnc(Nc3ccc(F)c(Cl)c3)c2cc1OCCCN1CCOCC1 [Gefitinib] | 17.3 | 6.6 | 5.8 | 5.4 | 1.5 | 10.9 | 9.8 | 15.1 | 16.5 | 16.2 |
| Nc1ccccc1NC(=O)c1ccc(CNC(=O)OCc2cccnc2)cc1 [Entinostat] | 8.6 | 8.6 | 8.4 | 7.6 | 5 | 1.6 | 4.3 | 7.5 | 3.7 | 8.2 |
| Cn1c(=O)n(-c2ccc(C(C)(C)C#N)cc2)c2c3cc(-c4cnc5ccccc5c4)ccc3ncc21 [Dactolisib] | 22.1 | 13.1 | 11.1 | 15.6 | 13 | 14.4 | 22.7 | 23 | 23.2 | 16.2 |
| CC(C)[C@@H](CS(=O)(=O)C(C)C)N1C(=O)[C@@](C)(CC(=O)O)C[C@H](c2cccc(Cl)c2)[C@H]1c1ccc(Cl)cc1 [AMG-232] | 14.9 | 0 | 0 | 0 | 0.8 | 0 | 5.6 | 26 | 13.1 | 0 |
| N.N.[Cl][Pt][Cl] [Cisplatin] | 9.2 | 3.7 | 18.6 | 6 | 6.3 | 16.6 | 7.3 | 9.1 | 6 | 4 |
| COc1ccc(Cl)c(Nc2nc3ccccc3nc2NS(=O)(=O)c2cccc(NC(=O)C(C)(C)N)c2)c1 [Pilaralisib] | – | – | – | – | – | – | 2.2 | – | – | – |
| COCC[n+]1c2c(n(Cc3cnccn3)c1C)C(=O)c1ccccc1C2=O [YM155] | – | – | – | – | – | – | 35.5 | – | – | – |
| N#Cc1c(Oc2ccc(F)c(NC(=O)Cc3cccc(C(F)(F)F)c3)c2)ccc2nc(NC(=O)C3CC3)sc12 [TAK-632] | – | – | – | – | – | – | 4.4 | – | – | – |
| C=CCNC1=C2C[C@@H](C)C[C@H](OC)[C@H](O)[C@@H](C)/C=C(\C)[C@H](OC(N)=O)[C@@H](OC)/C=C\C=C(/C)C(=O)NC(=CC1=O)C2=O [Tanespimycin] | – | – | – | – | – | – | 14.6 | – | – | – |
